Test results taken from ChEMBL document CHEMBL5303304, “EUbOPEN Chemogenomics Library - IncuCyte” (2023).

How the values were obtained:
Assay type in all cases: toxicity, cell-based
U2OS = experiment: Incucyte cell viability with U2OS; conditions: human, 10 µM, compound concentration 10 uM
Fibroblast = experiment: Incucyte cell viability with human fibroblast; conditions: 10 µM, compound concentration 10 uM
HEK-293T = experiment: Incucyte cell viability with HEK293T; conditions: human, 10 µM, compound concentration 10 uM
Note: unitless GR value; below 1 slowed growth and below 0 cell loss.

Row | SMILES | Growth Rate (U2OS; 0 h, replicate number 2) | Growth Rate (U2OS; 6 h, replicate number 2) | Growth Rate (U2OS; 12 h, replicate number 1) | Growth Rate (U2OS; 18 h, replicate number 1) | Growth Rate (U2OS; 18 h, replicate number 2) | Growth Rate (U2OS; 24 h, replicate number 1) | Growth Rate (U2OS; 24 h, replicate number 2) | Growth Rate (Fibroblast; 6 h, replicate number 2) | Growth Rate (Fibroblast; 12 h, replicate number 2) | Growth Rate (Fibroblast; 18 h, replicate number 2) | Growth Rate (Fibroblast; 24 h, replicate number 2) | Growth Rate (HEK-293T; 6 h, replicate number 1) | Growth Rate (HEK-293T; 12 h, replicate number 1) | Growth Rate (HEK-293T; 12 h, replicate number 2) | Growth Rate (HEK-293T; 18 h, replicate number 1) | Growth Rate (HEK-293T; 18 h, replicate number 2) | Growth Rate (HEK-293T; 24 h, replicate number 1) | Growth Rate (HEK-293T; 24 h, replicate number 2) | Growth Rate (U2OS; 0 h, replicate number 1) | Growth Rate (HEK-293T; 6 h, replicate number 2) | other results
1 | O=C(Nc1ccccc1Cl)c1cnc2ccc(C3CCNCC3)cn12.O=C(O)C(=O)O | -1 | 0.06 | 0.46 | 0.62 | 0.61 | 0.64 | 0.59 | -1 | -0.49 | 0.05 | 0.33 | -0.96 | -0.83 | -0.61 | -0.53 | -0.27 | -0.28 | -0.03 | – | – | Growth Rate (U2OS; 6 h, replicate number 1): -0.44; Growth Rate (U2OS; 12 h, replicate number 2): 0.5; Growth Rate (Fibroblast; 18 h, replicate number 1): -0.51; Growth Rate (Fibroblast; 24 h, replicate number 1): -0.36
2 | O=C(NNC(=O)c1ccc(CNS(=O)(=O)c2ccc(F)c(Cl)c2)cc1)c1ccccc1 | 0.85 | – | – | 0.97 | – | – | – | -0.76 | – | 0.85 | – | 0.34 | 0.48 | 0.64 | 0.31 | 0.87 | 0.36 | 0.83 | 0.67 | 0.59 | Growth Rate (Fibroblast; 0 h, replicate number 1): -0.42; Growth Rate (Fibroblast; 0 h, replicate number 2): -1; Growth Rate (Fibroblast; 18 h, replicate number 1): 0.64
3 | O=S(=O)(Nc1nncs1)c1cc(Cl)c(Oc2ccc(C(F)(F)F)cc2-c2ccnn2C2CNC2)cc1F | -0.77 | 0.95 | – | 0.95 | 1 | 0.86 | 0.98 | – | – | – | – | 0.2 | – | – | – | – | – | – | 0.61 | – | Growth Rate (Fibroblast; 18 h, replicate number 1): 0.41
4 | Cc1cc(O)c(-c2ccc([C@@H](C)CN(C)C)cc2)c2c1[nH]c(=O)c1sccc12 | -0.95 | – | 0.42 | 0.16 | 0.08 | -0.11 | -0.1 | -0.58 | -0.46 | -0.35 | -0.3 | -0.94 | -0.89 | -0.74 | -0.72 | -0.54 | -0.64 | -0.41 | -0.87 | -0.93 | Growth Rate (U2OS; 12 h, replicate number 2): 0.43; Growth Rate (Fibroblast; 0 h, replicate number 1): 0.34; Growth Rate (Fibroblast; 0 h, replicate number 2): 0.6; Growth Rate (Fibroblast; 6 h, replicate number 1): -1; Growth Rate (Fibroblast; 24 h, replicate number 1): 0.28
5 | CC(C)n1cnc2c(Nc3cccc(Cl)c3)nc(N[C@H]3CCCC[C@@H]3N)nc21 | – | 0.88 | -0.26 | -0.12 | -0.25 | -0.14 | -0.2 | -0.94 | -0.16 | -0.01 | 0.13 | -0.96 | -0.82 | -0.59 | -0.56 | -0.35 | -0.46 | -0.25 | -1 | -0.92 | Growth Rate (U2OS; 6 h, replicate number 1): 0.85; Growth Rate (U2OS; 12 h, replicate number 2): -0.22; Growth Rate (Fibroblast; 6 h, replicate number 1): -1
6 | CCOC(=O)c1cnn(-c2ccc(NC(=O)C(Cl)=C(Cl)Cl)cc2)c1C(F)(F)F | 0.55 | 0.04 | -0.42 | -0.49 | -0.43 | -0.43 | -0.42 | -1 | -0.86 | -0.7 | -0.57 | -0.63 | -0.5 | -0.37 | -0.51 | -0.25 | -0.51 | -0.13 | -0.17 | -0.52 | Growth Rate (U2OS; 6 h, replicate number 1): -0.33; Growth Rate (U2OS; 12 h, replicate number 2): -0.46; Growth Rate (Fibroblast; 12 h, replicate number 1): -1
7 | Cl.Cl.N#Cc1ccc(O[C@@H]2c3ccccc3C[C@H]2N2CCC[C@@H](N)C2)c(Cl)c1 | – | – | 0.7 | 0.67 | 0.86 | 0.72 | 0.93 | 0.35 | 0.27 | 0.29 | 0.37 | -0.97 | -0.93 | -0.24 | -0.77 | -0.13 | -0.66 | -0.04 | -1 | -0.57 | Growth Rate (U2OS; 12 h, replicate number 2): 0.96; Growth Rate (Fibroblast; 6 h, replicate number 1): -1
8 | CC(C)(C)c1ccc(NC(=O)N2CCN(c3ncccc3Cl)CC2)cc1 | – | – | 0.89 | 0.88 | – | 0.99 | – | – | – | – | 0.87 | -0.72 | -0.41 | 0.06 | -0.12 | 0.09 | -0.21 | 0.17 | – | -0.47 | Growth Rate (Fibroblast; 0 h, replicate number 2): -0.81; Growth Rate (Fibroblast; 6 h, replicate number 1): 0.2; Growth Rate (Fibroblast; 18 h, replicate number 1): 0.84
9 | Cl.Cl.NC1(c2ccc(-c3nc4ccn5c(=O)[nH]nc5c4cc3-c3ccccc3)cc2)CCC1 | – | – | – | – | – | 1 | – | -1 | -0.83 | -0.54 | -0.32 | -0.64 | -0.64 | -0.42 | -0.54 | -0.27 | -0.48 | -0.24 | – | -0.68 | Growth Rate (Fibroblast; 6 h, replicate number 1): -0.87; Growth Rate (Fibroblast; 12 h, replicate number 1): -1
10 | CCN1CCN(Cc2ccc(NC(=O)c3ccc(C)c(Oc4ccnc5[nH]ccc45)c3)cc2C(F)(F)F)CC1.Cl.Cl.Cl.O | -0.97 | 0.57 | 0.84 | 0.36 | 0.15 | 0.17 | 0.04 | – | 0.02 | -0.03 | -0.05 | -0.97 | -0.89 | -0.8 | -0.7 | -0.55 | -0.63 | -0.43 | -0.12 | -0.99 | Growth Rate (U2OS; 12 h, replicate number 2): 0.38; Growth Rate (Fibroblast; 6 h, replicate number 1): -0.67; Growth Rate (Fibroblast; 12 h, replicate number 1): -1
11 | Cc1ccc(-c2c(C(=O)CF)n(CCCO)c3ncnc(N)c23)cc1 | -0.79 | 0.44 | 0.92 | – | 0.96 | – | 0.98 | -1 | -0.21 | 0.3 | 0.41 | -0.57 | 0.54 | 0.68 | 0.96 | 0.85 | – | 0.87 | 0.43 | 0.16 | Growth Rate (Fibroblast; 18 h, replicate number 1): 0.29; Growth Rate (Fibroblast; 24 h, replicate number 1): 0.33
12 | CNC(=O)c1ccc2c(c1)NC(=O)/C2=C(\Nc1ccc(CN2CCCCC2)cc1)c1ccccc1.Cl.O | – | – | 0.94 | 0.82 | – | 0.89 | – | – | – | – | 0.78 | – | – | – | – | 0.71 | 1 | 0.54 | -1 | 0.72 | Growth Rate (Fibroblast; 0 h, replicate number 1): -1
13 | CCN1CCN(Cc2ccc(NC(=O)c3ccc(C)c(NC(=O)c4cncc(-c5cccs5)c4)c3)cc2C(F)(F)F)CC1 | -0.23 | -0.47 | -0.52 | -0.59 | -0.53 | -0.6 | -0.55 | -1 | -0.76 | -0.54 | -0.41 | -0.97 | -0.9 | -0.83 | -0.73 | -0.61 | -0.6 | -0.41 | -0.74 | -0.99 | Growth Rate (U2OS; 6 h, replicate number 1): -0.87; Growth Rate (U2OS; 12 h, replicate number 2): -0.42; Growth Rate (Fibroblast; 0 h, replicate number 2): -0.99; Growth Rate (Fibroblast; 18 h, replicate number 1): -0.92; Growth Rate (Fibroblast; 24 h, replicate number 1): -0.74
